Laboratory results as given in patent publication US7956047B2, “Use of chondroitin sulphate E (CS-E) for the treatment of diseases or conditions related to collagen fibril formation” (AnaMar AB, priority 2004, dated 2011).
Entries after “also recorded” stand apart in the source; their conditions may differ.

B1: fibromodulin (protein, UniProt Q06828 19-376, looked up)
Fibromodulin: QYEDDPHWWFHYLRSQQSTYYDPYDPYPYETYEPYPYGVDEGPAYTYGSPSPPDPRDCPQECDCPPNFPTAMYCDNRNLKYLPFVPSRMKYVYFQNNQITSIQEGVFDNATGLLWIALHGNQITSDKVGRKVFSKLRHLERLYLDHNNLTRMPGPLPRSLRELHLDHNQISRVPNNALEGLENLTALYLQHNEIQEVGSSMRGLRSLILLDLSYNHLRKVPDGLPSALEQLYMEHNNVYTVPDSYFRGAPKLLYVRLSHNSLTNNGLASNTFNSSSLLELDLSYNQLQKIPPVNTNLENLYLQGNRINEFSISSFCTVVDVVNFSKLQVLRLDGNEIKRSAMPADAPLCLRLASLIEI
B2: decorin (protein, UniProt P07585 31-359, looked up)
Decorin: DEASGIGPEVPDDRDFEPSLGPVCPFRCQCHLRVVQCSDLGLDKVPKDLPPDTTLLDLQNNKITEIKDGDFKNLKNLHALILVNNKISKVSPGAFTPLVKLERLYLSKNQLKELPEKMPKTLQELRAHENEITKVRKVTFNGLNQMIVIELGTNPLKSSGIENGAFQGMKKLSYIRIADTNITSIPQGLPPSLTELHLDGNKISRVDAASLKGLNNLAKLGLSFNSISAVDNGSLANTPHLRELHLDNNKLTRVPGGLAEHKYIQVVYLHNNNISVVGSSDFCPPGHNTKKASYSGVSLFSNPVQYWEIQPSTFRCVYVRSAIQLGNYK

Key:
[1] = test system: collagen monomers; conditions: literature / manuscript of the applicant's laboratory; cited from earlier work
[2] = test system: collagen fibril formation (collagen monomers, collagen type I / collagen type II); assay: In vitro collagen fibrillogenesis assay (turbidity / light scattering); format: biochemical, bovine; conditions: for effect on collagen fibril formation (CFF): purified free CS chains added to collagen monomers (330 nM), pH 7.4, FIG. 2 panel A
Description: Bovine pepsin-extracted collagen type I was purchased from Vitrogen. Collagen II was pepsin extracted from bovine tracheal cartilage, as previously described (Vogel, K. G., Paulsson, M., and Heinegård, D. (1984) Biochem. J. 223, 587-597). The fibrillogenesis assay has been previously described (Hedborn, E. and Heinegård, D. (1989) J. Biol. Chem. 264, 6898-6905).
Briefly, a solution of collagen monomers (330 nM) was brought to neutral pH by addition of an appropriate volume of 0.012M NaOH, and buffered by 20 mM HEPES, 150 mM NaCl at pH 7.4. Perlecan fragment was added at concentrations equimolar to that of collagen or at one tenth the molar concentration of collagen. The sample was mixed vigorously and briefly, and transferred to a cuvette. The sample was incubated at 37° C. (collagen type I) or 35° C. (collagen type II) in water-jacketed cuvettes in the spectrophotometer, and the absorbance due to light scattering at 400 nm (collagen type I) or 313 nm (collagen type II) was monitored over a duration of 5-18 hrs. The increased absorbance/turbidity depends on increasing fibre formation.
Fibrillogenesis was performed as described above. CS-E from squid was purchased from Calbiochem. 0.13 μg/ml corresponding to the molar concentration of GAG chains in previous experiments using recombinant perlecan domain I variants with HS/CS (PG IB) (33 nM).

Molecule	effect on formation of collagen fibres from monomers in vitro [1]	concentration at which the stimulatory effect on fibril formation reaches saturation ([2]; FIG. 2 panel B)	dose dependence of the stimulatory effect on collagen fibril formation ([2]; FIG. 2 panel B)	effect on collagen fibril formation (CFF) [2]
cartilage oligomeric matrix protein [COMP]	accelerates the formation of fibres from monomers	–	–	–
chondroitin sulphate E [CS-E]	–	30 µg/mL	dose-dependent	effective in collagen fibril formation; also recorded: positive result on collagen fibril formation; also recorded: dramatic effects on fibril formation
chondroitin-6 sulphate [CS-6, reference compound]	–	–	–	none of the other CS variants had any significant effect; also recorded: none of the other tested chondroitin sulphate variants (CS-D and CS-6) gives a positive result; also recorded: neither CS-6 nor CS-D had any effect
B1	slow down fibre formation in vitro	–	–	–
B2	slow down fibre formation in vitro	–	–	–
